Reference: patent publication US11220479B2, “Glucosylceramide synthase inhibitors and therapeutic methods using the same” (THE REGENTS OF THE UNIVERSITY OF MICHIGAN, priority 2019, dated 2022)
pIC50: −log10 of the molar value. Where two headings read alike, the source gives them in different places.

Key:
[1] = Half-life when incubated with mouse liver microsomes (MLM); type: in vitro ADME; conditions: read-out: MLM T½
Experimental: ^a Inhibition of GlcCer production in whole wild-type MDCKII cells. ^bHalf-life when incubated with mouse liver microsomes. ^cAreas under the drug concentration curve after single IP dose in mice (10 mg/kg). ^dReduction in brain levels of glucosylceramide in CBE mice after 14 days of qd dosing with test drug administered IP. NC=no change.

[2] = target: T1, glucosylceramide synthase (GCS) (Canis lupus familiaris, UniProt A0A8I3MXG6); assay: GCS inhibition in MDCKII cells (inhibition of GlcCer production in whole wild-type MDCKII cells); type: cell-based; conditions: read-out: MDCK IC50
T1 construct: endogenous in cells; host or cells: parental (wild-type) MDCKII cells
T1 sequence (A0A8I3MXG6 1-394): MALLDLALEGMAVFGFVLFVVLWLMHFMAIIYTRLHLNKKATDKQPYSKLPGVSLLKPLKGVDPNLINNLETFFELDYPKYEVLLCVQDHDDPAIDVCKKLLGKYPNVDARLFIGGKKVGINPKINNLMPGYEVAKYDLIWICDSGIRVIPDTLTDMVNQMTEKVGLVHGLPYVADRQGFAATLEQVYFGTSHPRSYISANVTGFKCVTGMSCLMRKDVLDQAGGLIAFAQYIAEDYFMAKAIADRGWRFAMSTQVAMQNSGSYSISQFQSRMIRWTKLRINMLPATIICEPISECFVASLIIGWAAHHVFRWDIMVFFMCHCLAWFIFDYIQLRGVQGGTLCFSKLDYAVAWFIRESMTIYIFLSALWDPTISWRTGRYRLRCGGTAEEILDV

[3] = IP PK: areas under the drug concentration curve after single IP dose in mice; type: in vivo; conditions: mice, single IP dose 10 mg/kg; for AUC: mouse, plasma
[4] = mouse, liver microsomes, Table 2, Cl vs H comparison
[5] = half-life when incubated with mouse liver microsomes
[6] = inhibition of GlcCer production in whole wild-type MDCKII cells, 24 hours

Row | half-life [1, 4] [min] | pIC50 ([2]; Table 2, Cl vs H comparison) | half-life [1, 5] [min] | pIC50 [2, 6] | IP PK Brain AUC [3] | AUC [3] [ng·h/mL] | SMILES
1 | 15 | 8.19 | – | – | – | – | O=C(CC1Cc2ccccc2C1)N[C@H](CN1CCCC1)[C@H](O)c1ccccc1 [Comp Ex. 1, reference compound]
2 | 120 | 8.60 | – | – | – | – | CC(C)(C)Oc1ccc([C@@H](O)[C@@H](CN2CCCC2)NC(=O)CC2Cc3ccccc3C2)cc1 [Comp. Ex. 2, reference compound]
3 | 251 | – | – | – | – | – | O=C(CC1Cc2ccccc2C1)N[C@H](CN1CCCC1)[C@H](O)c1ccc(OC(F)(F)F)cc1 [Comp. Ex. 3, reference compound]
4 | 3.8 | 8.77 | – | – | – | – | O=C(CC1Cc2ccccc2C1)N[C@H](CN1CCCC1)[C@H](O)c1ccc(OC2CC2)cc1 [Comp. Ex. 4, reference compound]
5 | 24 | 8.10 | – | – | – | – | CC1(Oc2ccc([C@@H](O)[C@@H](CN3CCCC3)NC(=O)CC3Cc4ccccc4C3)cc2)COC1 [Comp. Ex. 5, reference compound]
6 | 29 | 9.00 | – | – | – | – | CC1(C)COc2cc([C@@H](O)[C@@H](CN3CCCC3)NC(=O)CC3Cc4ccccc4C3)ccc2O1 [Comp. Ex. 7, reference compound]
7 | 56 | 8.41 | – | – | – | – | O=C(CC1Cc2ccccc2C1)N[C@H](CN1CCCC1)[C@H](O)c1ccc(C2CC2)cc1 [Comp. Ex. 8, reference compound]
8 | 38 | – | – | – | – | – | O=C(CC1Cc2ccccc2C1)N[C@H](CN1CCCC1)[C@H](O)c1ccc(OC(F)F)cc1 [Comp. Ex. 9, reference compound]
9 | – | 8.32 | – | – | – | – | COc1ccccc1[C@@H](O)[C@@H](CN1CCCC1)NC(=O)CC1Cc2ccccc2C1 [Comp. Ex. 19, reference compound]
10 | – | – | 316 | 8.39 | – | – | O=C(CC1Cc2ccccc2C1)N[C@H](CN1CCCC1)[C@H](O)c1ccc(OC(F)(F)F)c(Cl)c1 [Example 3, N-((1R,2R)-1-(3-chloro-4-(trifluoromethoxy)phenyl)-1-hydroxy-3-(pyrrolidin-1-yl)propan-2-yl)-2-(2,3-dihydro-1H-inden-2-yl)acetamide]
11 | – | – | 18 | 8.42 | 997 ng·h/mL | 401 | O=C(N[C@H](CN1CCCC1)[C@H](O)c1cccc(Cl)c1)OC1Cc2ccccc2C1 [Example 6, 2,3-dihydro-1H-inden-2-yl ((1R,2R)-1-(3-chlorophenyl)-1-hydroxy-3-(pyrrolidin-1-yl)propan-2-yl)carbamate]
12 | – | – | 91 | 9.27 | – | – | O=C(CC1Cc2ccccc2C1)N[C@H](CN1CCCC1)[C@H](O)c1ccc(C2CC2)c(Cl)c1 [Example 8, N-((1R,2R)-1-(3-chloro-4-cyclopropylphenyl)-1-hydroxy-3-(pyrrolidin-1-yl)propan-2-yl)-2-(2,3-dihydro-1H-inden-2-yl)acetamide]
13 | – | – | 12 | 8.06 | 940 ng·h/mL | 289 | O=C(CC1Cc2ccccc2C1)N[C@H](CN1CC[C@@H](F)C1)[C@H](O)c1cccc(Cl)c1 [Example 10, N-((1R,2R)-1-(3-chlorophenyl)-3-((R)-3-fluoropyrrolidin-1-yl)-1-hyroxypropan-2-yl)-2-(2,3-dihydro-1H-inden-2-yl)acetamide]
14 | – | – | 5.5 | 9.20 | 178 ng·h/mL | 397 | O=C(CC1Cc2ccccc2C1)N[C@H](CN1CC[C@@H](F)C1)[C@H](O)c1ccc(OC2CC2)c(Cl)c1 [Example 11, N-((1R,2R)-1-(3-chloro-4-cyclopropoxyphenyl)-3-((R)-3-fluoropyrrolidin-1-yl)-1-hydroxypropan-2-yl)-2-(2,3-dihydro-1H-inden-2-yl)acetamide]
15 | – | – | 187 | 9.15 | 216 ng·h/mL | 535 | O=C(CC1Cc2ccccc2C1)N[C@H](CN1CCCC1)[C@H](O)c1ccc(OC(F)F)c(Cl)c1 [Example 13, N-((1R,2R)-1-(3-chloro-4-(difluoromethoxy)phenyl)-1-hydroxy-3-(pyrrolidin-1-yl)propan-2-yl)-2-(2,3-dihydro-1H-inden-2-yl)acetamide]
16 | – | – | – | 8.04 | – | 324 | CC1(OC(=O)N[C@H](CN2CCCC2)[C@H](O)c2cccc(Cl)c2)Cc2ccccc2C1 [Example 14, 2-methyl-2,3-dihydro-1H-inden-2-yl ((1R,2R)-1-(3-chlorophenyl)-1-hydroxy-3-(pyrrolidin-1-yl)propan-2-yl)carbamate]
17 | – | – | 0.8 | 7.71 | 2656 ng·h/mL | 913 | O=C(N[C@H](CN1CC[C@@H](F)C1)[C@H](O)c1cccc(Cl)c1)OC1Cc2ccccc2C1.O=C(O)C(=O)O [Example 15, 2,3-dihydro-1H-inden-2-yl ((1R,2R)-1-(3-chlorophenyl)-3-((R)-3-fluoropyrrolidin-1-yl)-1-hydroxypropan-2-yl)carbamate oxalate]
18 | – | – | 54 | 8.17 | – | – | O=C(CC1Cc2ccccc2C1)N[C@H](CN1CCC1)[C@H](O)c1cccc(Cl)c1 [Example 16, N-((1R,2R)-3-(azetidin-1-yl)-1-(3-chlorophenyl)-1-hydroxypropan-2-yl)-2-(2,3-dihydro-1H-inden-2-yl)acetamide]
19 | – | – | – | 7.09 | – | – | COc1c(Cl)cccc1[C@@H](O)[C@@H](CN1CCCC1)NC(=O)CC1Cc2ccccc2C1 [Example 18, N-((1R,2R)-1-(3-chloro-2-methoxyphenyl)-1-hydroxy-3-(pyrrolidin-1-yl)propan-2-yl)-2-(2,3-dihydro-1H-inden-2-yl)acetamide]
20 | – | – | 7.1 | 9.37 | – | – | COc1ccc(Cl)cc1[C@@H](O)[C@@H](CN1CCCC1)NC(=O)CC1Cc2ccccc2C1 [Example 19, N-((1R,2R)-1-(5-chloro-2-methoxyphenyl)-1-hydroxy-3-(pyrrolidin-1-yl)propan-2-yl)-2-(2,3-dihydro-1H-inden-2-yl)acetamide]
21 | – | – | 6.5 | 8.68 | – | – | O=C(CC1Cc2ccccc2C1)N[C@H](CN1CCCC1)[C@H](O)c1cc(Cl)cc(OC2CC2)c1 [Example 20, N-((1R,2R)-1-(3-chloro-5-cyclopropoxyphenyl)-1-hydroxy-3-(pyrrolidin-1-yl)propan-2-yl)-2-(2,3-dihydro-1H-inden-2-yl)acetamide]
22 | – | – | > 1000 | 7.62 | – | – | CC(C)(C)c1ccc([C@@H](O)[C@@H](CN2CCCC2)NC(=O)CC2Cc3ccccc3C2)cc1Cl [Example 21, N-((1R,2R)-1-(4-(tert-butyl)-3-chlorophenyl)-1-hydroxy-3-(pyrrolidin-1-yl)propan-2-yl)-2-(2,3-dihydro-1H-inden-2-yl)acetamide]
23 | – | – | 4.6 | 6.85 | – | – | O=C(CC1Cc2ccccc2C1)N[C@H](CN1CCCC1)[C@H](O)c1cccc(Cl)c1F [Example 22, N-((1R,2R)-1-(3-chloro-2-fluorophenyl)-1-hydroxy-3-(pyrrolidin-1-yl)propan-2-yl)-2-(2,3-dihydro-1H-inden-2-yl)acetamide]
24 | – | – | 24 | 9.77 | BLQ | 644 | O=C(CC1Cc2ccccc2C1)N[C@H](CN1CCCC1)[C@H](O)c1cc(Cl)ccc1F [Example 23, N-((1R,2R)-1-(5-chloro-2-fluorophenyl)-1-hydroxy-3-(pyrrolidin-1-yl)propan-2-yl)-2-(2,3-dihydro-1H-inden-2-yl)acetamide]

Row | SMILES | half-life [1, 4] [min] | pIC50 ([2]; Table 2, Cl vs H comparison) | half-life [1, 5] [min] | pIC50 [2, 6] | IP PK Brain AUC [3] | AUC [3] [ng·h/mL]
25 | [2H]C([2H])([2H])N(C(=O)CC1Cc2ccccc2C1)[C@H](CN1CCCC1)[C@H](O)c1cccc(Cl)c1 [Example 17, N-((1R,2R)-1-(3-chlorophenyl)-1-hydroxy-3-(pyrrolidin-1-yl)propan-2-yl)-2-(2,3-dihydro-1H-inden-2-yl)-N-(methyl-d3)acetamide] | – | – | 15 | 7.96 | 742 ng·h/mL | 366
